According to BindingDB's records for doi:10.7270/Q2KW5DFJ (Emory University, 2007):

Target: T1, Ubiquitin carboxyl-terminal hydrolase BAP1 (Homo sapiens, UniProt Q92560)
T1 sequence (Q92560 whole entry): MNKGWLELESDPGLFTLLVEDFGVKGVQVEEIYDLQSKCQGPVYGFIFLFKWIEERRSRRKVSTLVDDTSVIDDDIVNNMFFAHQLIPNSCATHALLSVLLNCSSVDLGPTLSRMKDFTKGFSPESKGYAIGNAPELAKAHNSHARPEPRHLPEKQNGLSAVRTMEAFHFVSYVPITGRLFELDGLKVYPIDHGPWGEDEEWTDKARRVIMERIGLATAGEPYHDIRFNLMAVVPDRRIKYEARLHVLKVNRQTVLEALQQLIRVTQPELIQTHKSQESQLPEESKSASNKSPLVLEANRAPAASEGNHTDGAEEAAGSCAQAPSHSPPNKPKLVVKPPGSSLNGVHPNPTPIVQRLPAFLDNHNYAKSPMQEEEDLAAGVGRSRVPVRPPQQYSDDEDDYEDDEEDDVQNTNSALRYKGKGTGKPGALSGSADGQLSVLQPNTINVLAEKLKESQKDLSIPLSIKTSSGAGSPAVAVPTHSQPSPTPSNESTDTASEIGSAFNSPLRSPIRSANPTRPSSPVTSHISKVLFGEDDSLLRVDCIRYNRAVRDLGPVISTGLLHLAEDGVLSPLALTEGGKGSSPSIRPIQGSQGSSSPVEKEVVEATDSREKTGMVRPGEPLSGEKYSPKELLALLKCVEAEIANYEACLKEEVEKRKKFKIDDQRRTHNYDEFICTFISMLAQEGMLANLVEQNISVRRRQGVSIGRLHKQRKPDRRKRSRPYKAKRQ
Test: inhibition of BAP1 ubiquitin hydrolase activity – biochemical, dose response (AID 714)

IC50 [µM] | SMILES
33.9 | CCCOC(=O)C1=C(C)N=C2CCCC(=O)C2C1c1cccc(OC)c1OC (configuration not stated) [4-(2,3-dimethoxyphenyl)-2-methyl-5-oxo-4,6,7,8-tetrahydro-1H-quinoline-3-carboxylic acid propyl ester]
> 50 | CC(=O)C1=C(C)N=C(SCC(=O)c2ccc(Cl)c(Cl)c2)C(C#N)C1c1ccco1 (configuration not stated) [5-acetyl-2-[2-(3,4-dichlorophenyl)-2-oxoethyl]sulfanyl-4-(furan-2-yl)-6-methyl-1,4-dihydropyridine-3-carbonitrile]
